# Test results as given in patent publication EP0022330B1, “Synergistic antihypertensive compositions” (SMITHKLINE BECKMAN CORPORATION, priority 1979, dated 1981).
# Where “and” joins values, the source holds several entries; their conditions need not be identical. Equal entries are not always repeated. Where two headings read alike, the source gives them in different places. Marks after values point to notes of the source that are not given here.
# Assays:
# Assay type in all cases: in vivo
# [1] = test system: anesthetized normotensive dogs; assay: renal dopamine-like activity by infusion in anesthetized normotensive dogs; details: for ED15: Canis lupus familiaris, iv, infusion, anesthetized normotensive dogs
# Description: In the test procedure for determining renal dopamine-like activity by infusion in anesthetized normotensive dogs, 6 - chloro - 7,8 - dihydroxy - 1 - (p - hydroxyphenyl) - 2,3,4,5 - tetrahydro - 1 H - 3 - benzazepine has an ED15 of 0.3 µg/kg. The details of the test procedure are presented in the literature references mentioned above. The tri-O-acetyl derivative of this compound has an ED1. of 25 µg/kg, and the tri-O-isobutyryl derivative has an ED15 of 16 µg/kg. Other compounds of Formula I having renal dopaminergic activity can be used by comparing their activity in the anesthetized dog protocol with that of the above specifically named compound in preparing hypotensively effective and non-toxic dosage regimens. For example, referring to compounds of the Formula I in which R is H: […]
# The renal dopaminergic ED1. values given above for the infused anesthetized dog are useful to assess quantitative and qualitative biological properties of the 1 - hydroxyphenyl - 7,8 - dihydroxy - 2,3,4,5 - tetrahydro - 1 H - 3 - benzazepine compounds of Formula I. These compounds are preferably given by oral administration. They are rapidly absorbed from the gastrointestinal tract, and have a relatively short half life in vivo. Therefore, the renal dopaminergic agent must be matched with conventional dosage regimens of the diuretic agents considering the pharmacokinetic properties of each active component. This may be accomplished by combining the renal dopaminergic agent with a diuretic in standard dosage unit forms for administration from 2-6 times daily. This would be most suitable when the diuretic agent is of a short acting nature and conventionally multiple daily doses are used to give the desired maintenanance level.
# [2] = test system: glucose-infused unanesthetized dog; assay: renal clearance study in the glucose-infused unanesthetized dog; details: single dose, benzazepine salt alone, glucose-infused dog protocol
# [3] = test system: phosphate mannitol infused dog; assay: renal clearance study in the phosphate-mannitol infused dog; details: change from control, triamterene 10 mg. p.o., benzazepine 2.5 mg. p.o.
# Description: Mannitol itself has some proximal natriuretic effect which tends to screen any synergistic effect of the combination. […] In the parameters presented, the control figures are actual values. Phase II, III and IV are changes from control.
# [4] = test system: glucose-infused unanesthetized dog; assay: renal clearance study in the glucose-infused unanesthetized dog; details: hydrochlorothiazide 2.5 mg/kg i.v. then 3.0 mg/kg/hr infusion
# Description: In the glucose-infused unanesthetized dog, 6 - chloro - 7,8 - dihydroxy - 1 - (p - hydroxyphenyl) 2,3,4,5 - tetrahydro - 1 H - 3 - benzazepine methyl sulfonate was given at the peak time of natriureses established by a maximally effective dose of hydrochlorothiazide.
# All dogs were given an oral water load of 3% of body weight of tap water thirty minutes prior to initiation of the experiment. Using a constant infusion pump the dogs were infused intravenously at 3 ml/min. throughout the course of the experiment, with a 5% dextrose solution containing 3.0 mg/kg/hr of hydrochlorothiazide (HCTZ). Glomerular filtration rate was determined by the clearance of creatinine and effective renal plasma flow by the clearance of p-aminohippuric acid (PAH). […] The solution also contained 0.02% ascorbic acid. Suitable plasma levels of creatinine and p-aminohippuric acid were obtained by a twenty minute infusion of this solution to obtain equilibrium prior to starting of the initial urine collection. […] 1.5 ml/kg of a 1% creatinine solution in saline was also injected intravenously fifteen minutes prior to the start of the collection of urine. Replicate urine collections were obtained at ten minute intervals throughout the experiment. The bladder was emptied by an indwelling catheter and complete urine collections were measured by rinsing the bladder with 10 ml of water at the end of each collection interval, followed by an air wash-out. Venous blood samples were drawn from an indwelling catheter at the mid-point of each clearance period.
# Plasma and urine osmolalities were determined by freezing point depression on freshly obtained samples. Urine volume and pH were recorded at the time of collection. Plasma and urine samples were stored frozen after collection, until analyzed. Analysis for sodium and potassium were made using the flame. photometer, and for chloride, creatinine, and p-aminohippuric acid, by colorimeter, using standard methodologies. These analyses were made simultaneously on each sample. Peak intensities were identified electronically, recorded by "on-line" teletype, stored and subsequently analyzed mathematically by time-shared computer against appropriate standards. Data were computed from linear least square regression lines and quality control standards were analyzed simultaneously to evaluate system reproducibility and reliability.
# In the experiments where hydrochlorothiazide alone was given, twelve clearances were obtained. […] In the combination study the benzazepine was given by stomach tube at 5.0 mg/kg (base) after Ca, The compound was solubilized in water with a small amount of sugar syrup to prevent or minimize emesis. Clearances C7-C'2 (treatment) as in the hydrochlorothiazide alone tests, were taken with no wait between C6 and C7. Five dogs were used with both hydrochlorothiazide and with the combination.
# [5] = individual dog, difference between averages of C1—C6 and C7—C12
smiles,measurement,setting,value
C=CCN1CCc2c(cc(O)c(O)c2Cl)C(c2ccc(O)cc2)C1 (centres unmarked),renal dopaminergic activity,[1]; 0.3 ug/kg/min infusion rate,demonstrated activity
"CS(=O)(=O)O.Oc1ccc(C2CNCCc3c2cc(O)c(O)c3Cl)cc1 (centres unmarked) [6 - Chloro - 7,8 - dihydroxy - 1 - (4 - hydroxyphenyl) - 2,3,4,5 - tetrahydro - 1H - 3 - benzazepine methyl sulphonic acid salt]",diuretic effect,[2],no diuretic effect
"Oc1ccc(C2CNCCc3c2cc(O)c(O)c3Cl)cc1 (centres unmarked) [6 - chloro - 7,8 - dihydroxy - 1 - (p - hydroxyphenyl) - 2,3,4,5 - tetrahydro - 1 H - 3 - benzazepine]",ED15,[1]; read-out: ED15,0.3 µg/kg
same,Glomerular Filtration Rate,[3]; Phase II,1
same,Potassium Execretion,[3]; Phase II,−0.93**
same,Glomerular Filtration Rate,[3]; Phase III,−2
same,Potassium Execretion,[3]; Phase III,−1.59
same,Glomerular Filtration Rate,[3]; Phase IV,−2
same,Potassium Execretion,[3]; Phase IV,2.02
"Oc1cccc(C2CNCCc3c2cc(O)c(O)c3Cl)c1 (centres unmarked) [A, 6 - chloro - 7,8 - dihydroxy - 1 - (3 - hydroxyphenyl) - 2,3,4,5 - tetrahydro - 1 H - 3 - benzazepine]",ED15,[1]; read-out: ED15,0.35 µg/kg
Oc1ccc(C2CNCCc3c2cc(O)c(O)c3Br)cc1 (centres unmarked) [B],ED15,[1]; read-out: ED15,5 µg/kg
"Cc1c(O)c(O)cc2c1CCNCC2c1ccc(O)cc1 (centres unmarked) [C, 6 - methyl - 7,8 - dihydroxy - 1 - (4 - hydroxyphenyl) - 2,3,4,5 - tetrahydro - 1 H - 3 - benzazepine]",ED15,[1]; read-out: ED15,2.8 µg/kg
"Oc1ccc(C2CNCCc3c(Cl)c(O)c(O)c(Cl)c32)cc1 (centres unmarked) [D, 6,9 - dichloro - 7,8 - dihydroxy - 1 - (4 - hydroxyphenyl) - 2,3,4,5 - tetrahydro - 1H - 3 - benzazepine]",ED15,[1]; read-out: ED15,620 µg/kg
Cc1c(O)c(O)c(Cl)c2c1CCNCC2c1ccc(O)cc1 (centres unmarked) [E],ED15,[1]; read-out: ED15,30 µg/kg
Oc1ccc(C2CNCCc3c2cc(O)c(O)c3I)cc1 (centres unmarked) [F],ED15,[1]; read-out: ED15,4.2 µg/kg
"COC(=O)c1c(O)c(O)cc2c1CCNCC2c1ccc(O)cc1 (centres unmarked) [G, 6 - carbomethoxy - 7,8 - dihydroxy - 1 - (4 - hydroxyphenyl) - 2,3,4,5 - tetrahydro - 1H - 3 - benzazepine]",ED15,[1]; read-out: ED15,2.3 µg/kg
"NS(=O)(=O)c1cc2c(cc1Cl)NCNS2(=O)=O [Hydrochlorothiazide, hydrochlorothiazide]",Filtration Fraction Δ,[4]; Average of five dogs,−.012
same,Glomerular Filtration Rate (GFR) Δ % Change,[4]; Average of five dogs,−2.4%
same,Ranal Plasma Flow (RPF) Δ % Change,[4]; Average of five dogs,+2.6%
same,Δ % Na^+ Excreted,[4]; Average of five dogs,−0.82%
same,Filtration Fraction Δ,[4]; [5],−.01 and 0 and +.01 and −.03 (2×)
same,Glomerular Filtration Rate (GFR) Δ % Change,[4]; [5],−6% and +6% and −7% and 0% and −5%
same,Ranal Plasma Flow (RPF) Δ % Change,[4]; [5],−1% and +6% and −10% and +7% and +11%
same,Δ % Na^+ Excreted,[4]; [5],−1.1% (2×) and −0.8% and −0.5% and −0.6%
"Nc1nc(N)c2nc(-c3ccccc3)c(N)nc2n1 [Triamterene, triamterene]",Glomerular Filtration Rate,[3]; Phase II,−3
same,Potassium Execretion,[3]; Phase II,−3.65
same,Glomerular Filtration Rate,[3]; Phase III,−15
same,Potassium Execretion,[3]; Phase III,−5.44
same,Glomerular Filtration Rate,[3]; Phase IV,−15**
same,Potassium Execretion,[3]; Phase IV,−5.61
"CC(=O)Oc1ccc(C2CNCCc3c2cc(OC(C)=O)c(OC(C)=O)c3Cl)cc1 (centres unmarked) [tri-O-acetyl derivative, 6 - chloro - 7,8 - diacetoxy - 1 - (4 - acetoxyphenyl) 2,3,4,5 - tetrahydro - 1H - 3 - benzazepine]",ED15,[1]; read-out: ED1.,25 µg/kg
CC(C)C(=O)Oc1ccc(C2CNCCc3c2cc(OC(=O)C(C)C)c(OC(=O)C(C)C)c3Cl)cc1 (centres unmarked) [tri-O-isobutyryl derivative],ED15,[1]; read-out: ED15,16 µg/kg
